Experimental data as given in the supplement of paper PMC10307832.

Key:
Assay in all cases: relative viability (nuclei count vs DMSO), 5 days (fraction); higher = more cells survive
A-427 = system: A-427
Outline: (§1)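 Cells from lung cancer lines were seeded into 1536-well plates and, one day later, dosed by pin tool. Treatments were either a single drug or a fixed dose of an anchor drug with five library-drug doses (not always all listed) in √10 steps. After 5 days, nuclei were stained in a one-step fixation (final 0.05% Triton X-100, 1% formaldehyde, 1 ug/ml Hoechst) and counted on 4× images, and relative viability is the treated-to-vehicle nuclei ratio, as the median of duplicate plates.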

CAL-12T = system: CAL-12T
Outline: as §1

COR-L 105 = system: COR-L 105
Outline: as §1

EMC-BAC-2 = system: EMC-BAC-2
Outline: as §1

HARA = system: HARA
Outline: as §1

HCC-366 = system: HCC-366
Outline: as §1

HCC-827 = system: HCC-827
Outline: as §1

HOP-62 = system: HOP-62
Outline: as §1

LCLC-103H = system: LCLC-103H
Outline: as §1

NCI-H1355 = system: NCI-H1355
Outline: as §1

NCI-H1395 = system: NCI-H1395
Outline: as §1

NCI-H1437 = system: NCI-H1437
Outline: as §1

NCI-H1755 = system: NCI-H1755
Outline: as §1

NCI-H1792 = system: NCI-H1792
Outline: as §1

NCI-H1915 = system: NCI-H1915
Outline: as §1

NCI-H1975 = system: NCI-H1975
Outline: as §1

NCI-H2009 = system: NCI-H2009
Outline: as §1

NCI-H2228 = system: NCI-H2228
Outline: as §1

NCI-H23 = system: NCI-H23
Outline: as §1

NCI-H460 = system: NCI-H460
Outline: as §1

NCI-H727 = system: NCI-H727
Outline: as §1

SK-LU-1 = system: SK-LU-1
Outline: as §1

SW 1573 = system: SW 1573
Outline: as §1

`NC(=O)Nc1cc(-c2cccc(F)c2)sc1C(=O)N[C@H]1CCCNC1` [AZD7762] + N=C(N)NC(=N)NCCc1ccccc1 [Phenformin] (partner 250 µM) was tested, and the relative viability (A-427; first compound 0.01 µM) was 0.255, the relative viability (A-427; first compound 0.03162 µM) was 0.346 and the relative viability (A-427; first compound 0.1 µM) was 0.292. It also gave a relative viability (A-427; first compound 0.3162 µM) of 0.304, a relative viability (A-427; first compound 1 µM) of 0.197 and a relative viability (CAL-12T; first compound 0.01 µM) of 0.605. The relative viability (CAL-12T; first compound 0.03162 µM) was 0.559, the relative viability (CAL-12T; first compound 0.1 µM) was 0.571 and the relative viability (CAL-12T; first compound 0.3162 µM) was 0.321. It also gave a relative viability (CAL-12T; first compound 1 µM) of 0.114, a relative viability (COR-L 105; first compound 0.01 µM) of 0.5 and a relative viability (COR-L 105; first compound 0.03162 µM) of 0.491. It also gave a relative viability (COR-L 105; first compound 0.1 µM) of 0.477, a relative viability (COR-L 105; first compound 0.3162 µM) of 0.429 and a relative viability (COR-L 105; first compound 1 µM) of 0.254. The relative viability (EMC-BAC-2; first compound 0.01 µM) was 0.52, the relative viability (EMC-BAC-2; first compound 0.03162 µM) was 0.581 and the relative viability (EMC-BAC-2; first compound 0.1 µM) was 0.542. It also gave a relative viability (EMC-BAC-2; first compound 0.3162 µM) of 0.448, a relative viability (EMC-BAC-2; first compound 1 µM) of 0.474 and a relative viability (HARA; first compound 0.01 µM) of 0.569. It also gave a relative viability (HARA; first compound 0.03162 µM) of 0.509, a relative viability (HARA; first compound 0.1 µM) of 0.501 and a relative viability (HARA; first compound 0.3162 µM) of 0.282. The relative viability (HARA; first compound 1 µM) was 0.138, the relative viability (HCC-366; first compound 0.01 µM) was 0.601 and the relative viability (HCC-366; first compound 0.03162 µM) was 0.615. The relative viability (HCC-366; first compound 0.1 µM) was 0.627, the relative viability (HCC-366; first compound 0.3162 µM) was 0.485 and the relative viability (HCC-366; first compound 1 µM) was 0.312. It also gave a relative viability (HCC-827; first compound 0.01 µM) of 0.406, a relative viability (HCC-827; first compound 0.03162 µM) of 0.422 and a relative viability (HCC-827; first compound 0.1 µM) of 0.442. For the same compound, the relative viability (HCC-827; first compound 0.3162 µM) was 0.435, the relative viability (HCC-827; first compound 1 µM) was 0.249 and the relative viability (HOP-62; first compound 0.01 µM) was 0.748. It also gave a relative viability (HOP-62; first compound 0.03162 µM) of 0.665, a relative viability (HOP-62; first compound 0.1 µM) of 0.791 and a relative viability (HOP-62; first compound 0.3162 µM) of 0.616. The relative viability (HOP-62; first compound 1 µM) was 0.583, the relative viability (LCLC-103H; first compound 0.01 µM) was 0.376 and the relative viability (LCLC-103H; first compound 0.03162 µM) was 0.35. The relative viability (LCLC-103H; first compound 0.1 µM) was 0.352, the relative viability (LCLC-103H; first compound 0.3162 µM) was 0.312 and the relative viability (LCLC-103H; first compound 1 µM) was 0.339. The relative viability (NCI-H1355; first compound 0.01 µM) was 0.403, the relative viability (NCI-H1355; first compound 0.03162 µM) was 0.501 and the relative viability (NCI-H1355; first compound 0.1 µM) was 0.456. It also gave a relative viability (NCI-H1355; first compound 0.3162 µM) of 0.49, a relative viability (NCI-H1355; first compound 1 µM) of 0.444 and a relative viability (NCI-H1395; first compound 0.01 µM) of 0.471. For the same compound, the relative viability (NCI-H1395; first compound 0.03162 µM) was 0.47, the relative viability (NCI-H1395; first compound 0.1 µM) was 0.491 and the relative viability (NCI-H1395; first compound 0.3162 µM) was 0.434. For the same compound, the relative viability (NCI-H1395; first compound 1 µM) was 0.381, the relative viability (NCI-H1437; first compound 0.01 µM) was 0.304 and the relative viability (NCI-H1437; first compound 0.03162 µM) was 0.225. The relative viability (NCI-H1437; first compound 0.1 µM) was 0.328, the relative viability (NCI-H1437; first compound 0.3162 µM) was 0.343 and the relative viability (NCI-H1437; first compound 1 µM) was 0.279. It also gave a relative viability (NCI-H1755; first compound 0.01 µM) of 0.636, a relative viability (NCI-H1755; first compound 0.03162 µM) of 0.704 and a relative viability (NCI-H1755; first compound 0.1 µM) of 0.656. The relative viability (NCI-H1755; first compound 0.3162 µM) was 0.596, the relative viability (NCI-H1755; first compound 1 µM) was 0.423 and the relative viability (NCI-H1792; first compound 0.01 µM) was 0.412. The relative viability (NCI-H1792; first compound 0.03162 µM) was 0.26, the relative viability (NCI-H1792; first compound 0.1 µM) was 0.442 and the relative viability (NCI-H1792; first compound 0.3162 µM) was 0.736. For the same compound, the relative viability (NCI-H1792; first compound 1 µM) was 0.258, the relative viability (NCI-H1915; first compound 0.01 µM) was 0.373 and the relative viability (NCI-H1915; first compound 0.03162 µM) was 0.375. For the same compound, the relative viability (NCI-H1915; first compound 0.1 µM) was 0.368, the relative viability (NCI-H1915; first compound 0.3162 µM) was 0.362 and the relative viability (NCI-H1915; first compound 1 µM) was 0.349. It also gave a relative viability (NCI-H1975; first compound 0.01 µM) of 0.425, a relative viability (NCI-H1975; first compound 0.03162 µM) of 0.411 and a relative viability (NCI-H1975; first compound 0.1 µM) of 0.417. It also gave a relative viability (NCI-H1975; first compound 0.3162 µM) of 0.386, a relative viability (NCI-H1975; first compound 1 µM) of 0.328 and a relative viability (NCI-H2009; first compound 0.01 µM) of 0.496. The relative viability (NCI-H2009; first compound 0.03162 µM) was 0.535, the relative viability (NCI-H2009; first compound 0.1 µM) was 0.535 and the relative viability (NCI-H2009; first compound 0.3162 µM) was 0.543. It also gave a relative viability (NCI-H2009; first compound 1 µM) of 0.439, a relative viability (NCI-H2228; first compound 0.01 µM) of 0.305 and a relative viability (NCI-H2228; first compound 0.03162 µM) of 0.348. The relative viability (NCI-H2228; first compound 0.1 µM) was 0.223, the relative viability (NCI-H2228; first compound 0.3162 µM) was 0.152 and the relative viability (NCI-H2228; first compound 1 µM) was 0.13. For the same compound, the relative viability (NCI-H23; first compound 0.01 µM) was 0.813, the relative viability (NCI-H23; first compound 0.03162 µM) was 0.831 and the relative viability (NCI-H23; first compound 0.1 µM) was 0.808. For the same compound, the relative viability (NCI-H23; first compound 0.3162 µM) was 0.654, the relative viability (NCI-H23; first compound 1 µM) was 0.434 and the relative viability (NCI-H460; first compound 0.01 µM) was 0.542. For the same compound, the relative viability (NCI-H460; first compound 0.03162 µM) was 0.468, the relative viability (NCI-H460; first compound 0.1 µM) was 0.467 and the relative viability (NCI-H460; first compound 0.3162 µM) was 0.253. It also gave a relative viability (NCI-H460; first compound 1 µM) of 0.0452, a relative viability (NCI-H727; first compound 0.01 µM) of 0.465 and a relative viability (NCI-H727; first compound 0.03162 µM) of 0.548. The relative viability (NCI-H727; first compound 0.1 µM) was 0.439, the relative viability (NCI-H727; first compound 0.3162 µM) was 0.398 and the relative viability (NCI-H727; first compound 1 µM) was 0.262. For the same compound, the relative viability (SK-LU-1; first compound 0.01 µM) was 0.563, the relative viability (SK-LU-1; first compound 0.03162 µM) was 0.494 and the relative viability (SK-LU-1; first compound 0.1 µM) was 0.17. It also gave a relative viability (SK-LU-1; first compound 0.3162 µM) of 0.139, a relative viability (SK-LU-1; first compound 1 µM) of 0.131 and a relative viability (SW 1573; first compound 0.01 µM) of 0.374. It also gave a relative viability (SW 1573; first compound 0.03162 µM) of 0.384, a relative viability (SW 1573; first compound 0.1 µM) of 0.346 and a relative viability (SW 1573; first compound 0.3162 µM) of 0.297. It also gave a relative viability (SW 1573; first compound 1 µM) of 0.164.
